# Laboratory results from BindingDB's records for doi:10.1016/j.bmcl.2004.05.028 (Gsk, 2004).
# Biological target: Transient receptor potential cation channel subfamily V member 1 (Homo sapiens, UniProt Q8NER1)
# Test: FLIPR (Fluorescence Imaging Plate Reader)-Based Ca2+ Assay
# Conditions: pH 7.2; 25 °C
# Experimental: One day before the assay was performed, human TRPV1 expressed in 1321N1 astrocytoma cells were plated onto 96-well assay plates and grown until 2.5 h before the assay, and the cells were loaded with the Ca2+ reporter dye Fluo3-AM for 2 h at room temperature. After this, the cells were washed, and continuously being incubated for 30 min with medium containing test compounds at a range of different concentrations.
# Transient receptor potential cation channel subfamily V member 1, sequence (Q8NER1 whole entry): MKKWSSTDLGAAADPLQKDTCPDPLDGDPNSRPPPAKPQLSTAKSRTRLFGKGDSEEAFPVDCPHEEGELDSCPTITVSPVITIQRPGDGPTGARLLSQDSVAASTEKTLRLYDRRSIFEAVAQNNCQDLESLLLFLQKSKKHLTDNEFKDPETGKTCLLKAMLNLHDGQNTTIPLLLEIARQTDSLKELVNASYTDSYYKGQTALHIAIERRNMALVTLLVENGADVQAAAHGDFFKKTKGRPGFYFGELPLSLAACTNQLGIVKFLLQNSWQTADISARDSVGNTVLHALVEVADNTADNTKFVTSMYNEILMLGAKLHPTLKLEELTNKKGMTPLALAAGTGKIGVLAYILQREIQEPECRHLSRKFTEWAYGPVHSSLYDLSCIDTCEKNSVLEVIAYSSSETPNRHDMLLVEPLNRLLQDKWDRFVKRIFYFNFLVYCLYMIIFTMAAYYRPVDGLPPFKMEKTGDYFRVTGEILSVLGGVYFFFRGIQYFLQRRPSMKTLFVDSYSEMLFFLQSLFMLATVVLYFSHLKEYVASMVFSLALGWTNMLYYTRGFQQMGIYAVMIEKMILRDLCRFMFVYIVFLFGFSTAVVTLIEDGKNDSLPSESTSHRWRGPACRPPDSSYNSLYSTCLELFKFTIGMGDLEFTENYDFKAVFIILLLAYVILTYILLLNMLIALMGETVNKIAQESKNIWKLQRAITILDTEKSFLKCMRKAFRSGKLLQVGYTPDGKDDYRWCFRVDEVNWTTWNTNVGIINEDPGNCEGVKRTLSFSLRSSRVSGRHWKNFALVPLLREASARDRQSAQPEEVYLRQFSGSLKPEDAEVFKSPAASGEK
row,Structure (SMILES),EC50
1,CCN(CCNC(=O)Nc1ccccc1Br)c1cccc(C)c1 [3-(2-bromophenyl)-1-{2-[ethyl(3-methylphenyl)amino]ethyl}urea],16 nM
2,COc1cccc(NC(=O)/C=C/c2ccc(Cl)cc2)c1 [(2E)-3-(4-chlorophenyl)-N-(3-methoxyphenyl)prop-2-enamide],20 nM
3,"Oc1cc2c(cc1O)CN(C(=S)NCCc1ccc(Cl)cc1)CCC2 [N-[2-(4-chlorophenyl)ethyl]-7,8-dihydroxy-2,3,4,5-tetrahydro-1H-2-benzazepine-2-carbothioamide]",32 nM
